Results published in patent US9695155B2, “Herbicidal substituted pyrimidinyloxy benzene compounds” (E. I. DU PONT DE NEMOURS AND COMPANY, priority 2013, dated 2017).

Experiments:
spring wheat [1] = test: Test D postemergence; assay type: in vivo, Triticum aestivum; conditions: Triticum aestivum, post-emergence, scale 0 to 100 (0 no effect, 100 complete control), read-out: Plant response rating, Wheat, Spring; for plant injury at 31 g/ha: 31 g ai/ha; for plant injury at 62 g/ha: 62 g ai/ha; for plant injury at 125 g/ha: 125 g ai/ha; for plant injury at 250 g/ha: 250 g ai/ha
How it was run: (§1)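 Plant response is a visual score from 0 (no effect) to 100 (complete control) relative to controls. Plants were kept in a controlled growth environment for 7 to 21 days after spraying. Preemergence treatments went onto silt loam soil; postemergence ones onto 1- to 4-leaf seedlings.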

winter wheat [2] = test: Test D postemergence; assay type: in vivo, Triticum aestivum; conditions: Triticum aestivum, post-emergence, scale 0 to 100 (0 no effect, 100 complete control), read-out: Plant response rating, Wheat, Winter; for plant injury at 31 g/ha: 31 g ai/ha; for plant injury at 62 g/ha: 62 g ai/ha; for plant injury at 125 g/ha: 125 g ai/ha; for plant injury at 250 g/ha: 250 g ai/ha
How it was run: as §1

deadnettle = test: Test D postemergence; assay type: in vivo, Lamium amplexicaule; conditions: Lamium amplexicaule, post-emergence, scale 0 to 100 (0 no effect, 100 complete control), read-out: Plant response rating, Deadnettle; for pest or weed control at 31 g/ha: 31 g ai/ha; for pest or weed control at 62 g/ha: 62 g ai/ha; for pest or weed control at 125 g/ha: 125 g ai/ha; for pest or weed control at 250 g/ha: 250 g ai/ha
How it was run: as §1

wild buckwheat = test: Test D postemergence; assay type: in vivo, Polygonum convolvulus; conditions: Fallopia convolvulus, post-emergence, Postemergence, scale 0 to 100 (0 no effect, 100 complete control), read-out: Plant response rating, Buckwheat, Wild; for pest or weed control at 31 g/ha: 31 g ai/ha; for pest or weed control at 62 g/ha: 62 g ai/ha; for pest or weed control at 125 g/ha: 125 g ai/ha; for pest or weed control at 250 g/ha: 250 g ai/ha
How it was run: as §1

spring wheat [3] = test: Test D preemergence; assay type: in vivo, Triticum aestivum; conditions: Triticum aestivum, pre-emergence; for plant injury at 31 g/ha: 31 g ai/ha, scale 0 (no effect) to 100 (complete control), read-out: Plant response rating, Wheat, Spring; for plant injury at 62 g/ha: 62 g ai/ha; for plant injury at 62 g/ha / plant injury at 125 g/ha / plant injury at 250 g/ha: scale 0-100, read-out: Plant response rating, Wheat, Spring; for plant injury at 125 g/ha: 125 g ai/ha; for plant injury at 250 g/ha: 250 g ai/ha
How it was run: as §1

winter wheat [4] = test: Test D preemergence; assay type: in vivo, Triticum aestivum; conditions: Triticum aestivum, pre-emergence; for plant injury at 31 g/ha: 31 g ai/ha, scale 0 (no effect) to 100 (complete control), read-out: Plant response rating, Wheat, Winter; for plant injury at 62 g/ha: 62 g ai/ha; for plant injury at 62 g/ha / plant injury at 125 g/ha / plant injury at 250 g/ha: scale 0-100, read-out: Plant response rating, Wheat, Winter; for plant injury at 125 g/ha: 125 g ai/ha; for plant injury at 250 g/ha: 250 g ai/ha
How it was run: as §1

wild oat = test: Test D preemergence; assay type: in vivo, Avena fatua; conditions: Avena fatua, pre-emergence, scale 0-100, read-out: Plant response rating, Oat, Wild; for pest or weed control at 31 g/ha: 31 g ai/ha; for pest or weed control at 62 g/ha: 62 g ai/ha; for pest or weed control at 125 g/ha: 125 g ai/ha; for pest or weed control at 250 g/ha: 250 g ai/ha
How it was run: as §1

chamomile = test: Test D preemergence; assay type: in vivo, Matricaria inodora; conditions: Tripleurospermum inodorum, pre-emergence, scale 0-100, read-out: Plant response rating, Chamomile; for pest or weed control at 31 g/ha: 31 g ai/ha; for pest or weed control at 62 g/ha: 62 g ai/ha; for pest or weed control at 125 g/ha: 125 g ai/ha; for pest or weed control at 250 g/ha: 250 g ai/ha
How it was run: as §1

Italian ryegrass = test: Test E postemergence; assay type: in vivo, Lolium multiflorum; conditions: Lolium multiflorum, post-emergence, read-out: Plant response rating, Ryegrass, Italian; for pest or weed control at 31 g/ha / pest or weed control at 62 g/ha / pest or weed control at 125 g/ha / pest or weed control at 250 g/ha: Postemergence, scale 0 to 100; for pest or weed control at 31 g/ha: 31 g ai/ha; for pest or weed control at 62 g/ha: 62 g ai/ha; for pest or weed control at 125 g/ha: 125 g ai/ha; for pest or weed control at 250 g/ha: 250 g ai/ha; for pest or weed control at 16 g/ha: postemergence, 16 g ai/ha, scale 0 to 100, 0 no effect, 100 complete control
How it was run: (§2)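 Compound in a non-phytotoxic solvent mixture with surfactant was applied preemergence to seeds in silt loam soil, or postemergence to plants 2 to 18 cm tall grown in peat-based potting medium. Plants were kept in a greenhouse for 14 to 21 days, then rated visually against untreated controls on a 0 (no effect) to 100 (complete control) scale.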

arrowleaf sida = test: Test E postemergence; assay type: in vivo, Sida rhombifolia; conditions: Sida rhombifolia, post-emergence, read-out: Plant response rating, Arrowleaf Sida; for pest or weed control at 31 g/ha / pest or weed control at 62 g/ha / pest or weed control at 125 g/ha / pest or weed control at 250 g/ha: Postemergence, scale 0 to 100; for pest or weed control at 31 g/ha: 31 g ai/ha; for pest or weed control at 62 g/ha: 62 g ai/ha; for pest or weed control at 125 g/ha: 125 g ai/ha; for pest or weed control at 250 g/ha: 250 g ai/ha; for pest or weed control at 16 g/ha: postemergence, 16 g ai/ha, scale 0 to 100, 0 no effect, 100 complete control
How it was run: as §2

spring barley = test: Test D preemergence; assay type: in vivo, Hordeum vulgare; conditions: Hordeum vulgare, pre-emergence, scale 0-100, read-out: Plant response rating, Barley, Spring; for plant injury at 31 g/ha: 31 g ai/ha; for plant injury at 62 g/ha: 62 g ai/ha; for plant injury at 125 g/ha: 125 g ai/ha; for plant injury at 250 g/ha: 250 g ai/ha
How it was run: as §1

winter barley = test: Test D preemergence; assay type: in vivo, Hordeum vulgare; conditions: Hordeum vulgare, pre-emergence, scale 0-100, read-out: Plant response rating, Barley, Winter; for plant injury at 31 g/ha: 31 g ai/ha; for plant injury at 62 g/ha: 62 g ai/ha; for plant injury at 125 g/ha: 125 g ai/ha; for plant injury at 250 g/ha: 250 g ai/ha
How it was run: as §1

cocklebur = test: Test E preemergence; assay type: in vivo, Xanthium strumarium; conditions: for Cocklebur plant response rating: scale 0 to 100 (0 no effect, 100 complete control); for Plant response rating, Cocklebur: scale 0 to 100, 0 no effect, 100 complete control
How it was run: as §2

N#Cc1cccc(Oc2ncc(Cl)cn2)c1-n1cc(C(F)(F)F)cn1 [Compound 58, 3-[(5-chloro-2-pyrimidinyl)oxy]-2-[4-(trifluoromethyl)-1H-pyrazol-1-yl]benzonitrile]
plant injury at 31 g/ha (spring wheat [1]): 10% | plant injury at 62 g/ha (spring wheat [1]): 15% | plant injury at 125 g/ha (spring wheat [1]): 20% | plant injury at 250 g/ha (spring wheat [1]): 35% | plant injury at 31 g/ha (winter wheat [2]): 15% | plant injury at 62 g/ha (winter wheat [2]): 20% | plant injury at 125 g/ha (winter wheat [2]): 25% | plant injury at 250 g/ha (winter wheat [2]): 40% | pest or weed control at 31 g/ha (deadnettle): 80% | pest or weed control at 62 g/ha (deadnettle): 100% | pest or weed control at 125 g/ha (deadnettle): 100% | pest or weed control at 250 g/ha (deadnettle): 100% | pest or weed control at 31 g/ha (wild buckwheat): 90% | pest or weed control at 62 g/ha (wild buckwheat): 100% | pest or weed control at 125 g/ha (wild buckwheat): 100% | pest or weed control at 250 g/ha (wild buckwheat): 100% | plant injury at 31 g/ha (spring wheat [3]): 0% | plant injury at 62 g/ha (spring wheat [3]): 15% | plant injury at 125 g/ha (spring wheat [3]): 75% | plant injury at 250 g/ha (spring wheat [3]): 100% | plant injury at 31 g/ha (winter wheat [4]): 0% | plant injury at 62 g/ha (winter wheat [4]): 20% | plant injury at 125 g/ha (winter wheat [4]): 50% | plant injury at 250 g/ha (winter wheat [4]): 90% | pest or weed control at 31 g/ha (wild oat): 15% | pest or weed control at 62 g/ha (wild oat): 25% | pest or weed control at 125 g/ha (wild oat): 60% | pest or weed control at 250 g/ha (wild oat): 100% | pest or weed control at 31 g/ha (chamomile): 30% | pest or weed control at 62 g/ha (chamomile): 50% | pest or weed control at 125 g/ha (chamomile): 80% | pest or weed control at 250 g/ha (chamomile): 100% | pest or weed control at 31 g/ha (Italian ryegrass): 10% | pest or weed control at 62 g/ha (Italian ryegrass): 20% | pest or weed control at 125 g/ha (Italian ryegrass): 35% | pest or weed control at 250 g/ha (Italian ryegrass): 60% | pest or weed control at 16 g/ha (Italian ryegrass): 10% | pest or weed control at 31 g/ha (arrowleaf sida): 80% | pest or weed control at 62 g/ha (arrowleaf sida): 90% | pest or weed control at 125 g/ha (arrowleaf sida): 95% | pest or weed control at 250 g/ha (arrowleaf sida): 98% | pest or weed control at 16 g/ha (arrowleaf sida): 70% | plant injury at 31 g/ha (spring barley): 10% | plant injury at 62 g/ha (spring barley): 50% | plant injury at 125 g/ha (spring barley): 85% | plant injury at 250 g/ha (spring barley): 100% | plant injury at 31 g/ha (winter barley): 10% | plant injury at 62 g/ha (winter barley): 35% | plant injury at 125 g/ha (winter barley): 80% | plant injury at 250 g/ha (winter barley): 100% | Cocklebur plant response rating (cocklebur; 31 g ai/ha): 0 | Plant response rating, Cocklebur (cocklebur; 125 g ai/ha): 0 | Plant response rating, Cocklebur (cocklebur; 250 g ai/ha): 50

N#Cc1cccc(Oc2ncc(Br)cn2)c1-n1cc(C(F)(F)F)cn1 [Compound 59, 3-[(5-bromo-2-pyrimidinyl)oxy]-2-[4-(trifluoromethyl)-1H-pyrazol-1-yl]benzonitrile]
plant injury at 31 g/ha (spring wheat [1]): 10% | plant injury at 62 g/ha (spring wheat [1]): 15% | plant injury at 125 g/ha (spring wheat [1]): 20% | plant injury at 250 g/ha (spring wheat [1]): 25% | plant injury at 31 g/ha (winter wheat [2]): 10% | plant injury at 62 g/ha (winter wheat [2]): 15% | plant injury at 125 g/ha (winter wheat [2]): 20% | plant injury at 250 g/ha (winter wheat [2]): 20% | pest or weed control at 31 g/ha (deadnettle): 70% | pest or weed control at 62 g/ha (deadnettle): 75% | pest or weed control at 125 g/ha (deadnettle): 100% | pest or weed control at 250 g/ha (deadnettle): 100% | pest or weed control at 31 g/ha (wild buckwheat): 80% | pest or weed control at 62 g/ha (wild buckwheat): 100% | pest or weed control at 125 g/ha (wild buckwheat): 100% | pest or weed control at 250 g/ha (wild buckwheat): 100% | plant injury at 31 g/ha (spring wheat [3]): 0% | plant injury at 62 g/ha (spring wheat [3]): 5% | plant injury at 125 g/ha (spring wheat [3]): 40% | plant injury at 250 g/ha (spring wheat [3]): 55% | plant injury at 31 g/ha (winter wheat [4]): 0% | plant injury at 62 g/ha (winter wheat [4]): 5% | plant injury at 125 g/ha (winter wheat [4]): 5% | plant injury at 250 g/ha (winter wheat [4]): 35% | pest or weed control at 31 g/ha (wild oat): 0% | pest or weed control at 62 g/ha (wild oat): 0% | pest or weed control at 125 g/ha (wild oat): 20% | pest or weed control at 250 g/ha (wild oat): 55% | pest or weed control at 31 g/ha (chamomile): 10% | pest or weed control at 62 g/ha (chamomile): 15% | pest or weed control at 125 g/ha (chamomile): 95% | pest or weed control at 250 g/ha (chamomile): 85% | pest or weed control at 31 g/ha (Italian ryegrass): 0% | pest or weed control at 62 g/ha (Italian ryegrass): 15% | pest or weed control at 125 g/ha (Italian ryegrass): 25% | pest or weed control at 250 g/ha (Italian ryegrass): 60% | pest or weed control at 16 g/ha (Italian ryegrass): 0% | pest or weed control at 31 g/ha (arrowleaf sida): 70% | pest or weed control at 62 g/ha (arrowleaf sida): 80% | pest or weed control at 125 g/ha (arrowleaf sida): 85% | pest or weed control at 250 g/ha (arrowleaf sida): 90% | pest or weed control at 16 g/ha (arrowleaf sida): 65% | plant injury at 31 g/ha (spring barley): 5% | plant injury at 62 g/ha (spring barley): 5% | plant injury at 125 g/ha (spring barley): 50% | plant injury at 250 g/ha (spring barley): 75% | plant injury at 31 g/ha (winter barley): 0% | plant injury at 62 g/ha (winter barley): 10% | plant injury at 125 g/ha (winter barley): 40% | plant injury at 250 g/ha (winter barley): 80% | Cocklebur plant response rating (cocklebur; 31 g ai/ha): 0 | Cocklebur plant response rating (cocklebur; 62 g ai/ha): 0 | Plant response rating, Cocklebur (cocklebur; 250 g ai/ha): 0
